In PubChem BioAssay AID1062 (NMMLSC, 2008):
Active and inactive are the calls of the source.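 The calls were made as follows: active = compounds blocking proteasome disassembly by more than 40% at the highest tested dose; inconclusive = compounds bright enough on their own to skew readings; inactive = the rest.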 Where a SMILES comes first, the peptide text is derived from it. The star is where a group is joined. Cbz = O=C(OCc1ccccc1)*

Target: 26S proteasome (lid disassembly, GFP-tagged; likely yeast)
Test: blockers of ATP hydrolysis-driven proteasome lid dissociation – biochemical, bead-based flow cytometry, GFP-tagged lid, dose response (AID 1062)
Details: GFP-proteasome beads; for inhibition of disassembly: at 100 µM (top of the series); for EC50: disassembly inhibition

Row | SMILES | inhibition of disassembly | EC50
1 | CCN(CC)c1ccc(-c2c(C#N)c(N)nc(OC)c2C#N)cc1 | inactive | –
2 | O=C1CC(c2ccccc2)Cc2nc(N3CCc4ccccc43)ncc21 (stereo unspecified) | inactive | –
3 | COC(=O)C1=C(C)N=c2s/c(=C/c3cccs3)c(=O)n2C1c1cccs1 (stereo unspecified) | inactive | –
4 | Cc1noc(/C=C/c2ccco2)c1S(=O)(=O)N1CCC(C(=O)N2c3ccccc3CC2C)CC1 (stereo unspecified) | inactive | –
5 | N#Cc1cc2c(nc1SCC(=O)Nc1sc3c(c1C#N)CCC3)CCCCC2 | inactive | –
6 | CCCOc1ccc(/C=c2\sc3nc(-c4ccco4)nn3c2=O)cc1OCC | inactive | –
7 | Cc1noc(/C=C/c2ccco2)c1S(=O)(=O)N1CCC(C(=O)N(C)Cc2ccccc2)CC1 | inactive | –
8 | O=C(CN1C(=O)C2CCCN2c2ncc(Cl)cc21)NCc1ccc2c(c1)OCO2 (stereo unspecified) | – | inactive
9 | Cc1ccc2nc(NC(=O)C3CCCN(S(=O)(=O)c4cccc5nsnc45)C3)sc2c1 (stereo unspecified) | inactive | –
10 | COC(=O)c1ccc2c(c1)N(Cc1nc(-c3cccc(Cl)c3)oc1C)C(=O)C1CCCN21 (stereo unspecified) | inactive | –
11 | CC(=O)N1C(=O)C(=C2C=C(C)OC(C)=C2)c2ccccc21 | – | 61.7 µM
12 | COC(=O)c1ccc2c(c1)N(Cc1nc(-c3ccc(Cl)cc3)oc1C)C(=O)C1CCCN21 (stereo unspecified) | – | > 100 µM (inactive)
13 | COC(=O)[C@H]1[C@H]2C[C@@H]3c4[nH]c5cc(OC)ccc5c4CCN3C[C@H]2C[C@@H](OC(=O)c2cc(OC)c(OC)c(OC)c2)[C@@H]1OC | inactive | –
14 | CCOc1ccc(/C=c2\sc3nc(-c4ccco4)nn3c2=O)cc1OCC | inactive | –
15 | Cc1cccc(NC(=O)c2sc3nc(-c4ccc(F)cc4)cn3c2C)n1 | – | 25.9 µM
16 | O=C(Nc1ccccc1)C1=C(O)CC(c2ccco2)CC1=Nc1ccccc1 (stereo unspecified) | – | > 100 µM (inactive)
17 | Cc1noc(/C=C/c2ccco2)c1S(=O)(=O)N1CCC(C(=O)N2CCc3ccccc3C2)CC1 | inactive | –
18 | O=c1cc(Nc2ccc3c(c2)OCCO3)[nH]c(=O)n1C1CCCCC1 | inactive | –
19 | CC(C)C[C@@H](C=O)NC(=O)[C@H](CC(C)C)NC(=O)[C@H](CC(C)C)NC(=O)OCc1ccccc1 (Cbz-Leu-Leu-Leu-aldehyde) | inactive | –
20 | Fc1ccc2nc(Nc3nc4c(s3)CCCC4)sc2c1 | inactive | –
21 | Cc1ccc(C)c(N2CCN(S(=O)(=O)c3c(C)noc3/C=C/N(C)C)CC2)c1 | inactive | –
